Values after ≈ are worked out from the molar mass of the structure shown.
How the values were obtained:
MRSA = assay: MIC by broth microdilution, MRSA isolates; type: cell-based; details: for MIC AG038 MRSA: clinical isolate AG038; for MIC AG039 MRSA AAC(6′)-I ANT(4′)-I: clinical isolate AG039, AAC(6′)-I ANT(4′)-I; for MIC AG042 MRSA AAC(6′)-I ANT(4′)-I APH(2′): clinical isolate AG042, AAC(6′)-I ANT(4′)-I APH(2′); for MIC AG044 MRSA: clinical isolate AG044
E coli wild type = assay: MIC by broth microdilution, wild type E coli; type: cell-based; details: for MIC pH430 WT: E. coli strain pH430, WT; for MIC AG001 E. coli WT: clinical isolate AG001, WT; for MIC AG055 E. coli WT: clinical isolate AG055, WT
P aeruginosa = assay: MIC by broth microdilution, P aeruginosa isolates; type: cell-based, Pseudomonas aeruginosa; details: for MIC AG031 P. aer. APH(3′)-II: clinical isolate AG031, APH(3′)-II; for MIC AG032 P. aer. APH(3′)-II: clinical isolate AG032, APH(3′)-II
[1] = system: E coli carrying specific resistance determinants; assay: MIC by broth microdilution, E coli carrying specific resistance determinants; type: cell-based; details: for MIC AG036 ANT(4′,4′′): E. coli strain AG036, ANT(4′,4′′); for MIC AG037 APH(3′)-III: E. coli strain AG037, APH(3′)-III; for MIC AG103 armA: E. coli strain AG103, armA; for MIC pH414 AAC(6′)-I: E. coli strain pH414, AAC(6′)-I; for MIC pH415 AAC(6′)-II: E. coli strain pH415, AAC(6′)-II; for MIC pH421 APH(3)-I: E. coli strain pH421, APH(3)-I; for MIC pH422 APH(3′)-II: E. coli strain pH422, APH(3′)-II; for MIC pH423 APH(3′)-VI: E. coli strain pH423, APH(3′)-VI; for MIC pH432 ANT(4′): E. coli strain pH432, ANT(4′); for MIC AG003 E. coli AAC(3)-II: clinical isolate AG003, AAC(3)-II
[2] = system: wild type bacterial ribosomes; assay: in-vitro translation assay, bacterial ribosomes; type: biochemical; details: Mycobacterium smegmatis ribosomes; read-out: IC50 Bacterial
Source text: (§1) The antiribosomal activity of these compounds was investigated with cell-free translation assays using both wild type bacterial ribosomes and hybrid ribosomes carrying eukaryotic decoding A sites enabling the prediction of selectivity.

[3] = system: A1555G mutant mitochondrial ribosome (human chimeric); assay: in-vitro translation assay, human chimeric ribosomes, A1555G mutant mitochondrial decoding site; type: biochemical; details: human mitochondrial decoding site with A1555G point mutation; read-out: IC50 Mitoch. A1555G
Source text: as §1

[4] = system: cytosolic ribosome (human chimeric); type: biochemical; details: for IC50: ribosomes with a human cytosolic decoding site, read-out: IC50 Cytosolic
Source text: as §1

[5] = system: mitochondrial ribosome (human chimeric); type: biochemical; details: ribosomes with a human mitochondrial decoding site; read-out: IC50 Mitoch.
Source text: as §1

[6] = system: rabbit reticulocyte ribosomes; assay: in-vitro translation assay, rabbit reticulocyte ribosomes; type: biochemical; details: mammalian cytosolic ribosomes (rabbit)

Compound | MIC AG038 MRSA (MRSA) [µg/mL] | MIC AG039 MRSA AAC(6′)-I ANT(4′)-I (MRSA) [µg/mL] | MIC AG042 MRSA AAC(6′)-I ANT(4′)-I APH(2′) (MRSA) [µg/mL] | MIC AG044 MRSA (MRSA) [µg/mL] | MIC pH430 WT (E coli wild type) [μg/ml] | MIC AG001 E. coli WT (E coli wild type) [µg/mL] | MIC AG055 E. coli WT (E coli wild type) [µg/mL] | MIC AG031 P. aer. APH(3′)-II (P aeruginosa) [µg/mL] | MIC AG032 P. aer. APH(3′)-II (P aeruginosa) [µg/mL] | MIC AG036 ANT(4′,4′′) [1] [µg/mL] | MIC AG037 APH(3′)-III [1] [µg/mL] | MIC AG103 armA [1] [µg/mL] | MIC pH414 AAC(6′)-I [1] [μg/ml] | MIC pH415 AAC(6′)-II [1] [μg/ml] | MIC AG003 E. coli AAC(3)-II [1] [µg/mL] | IC50 [2] [µM] | IC50 [3] [µM] | IC50 [4] [µM] | IC50 [5] [µM] | IC50 [6] [µM] | also measured
CC(O)C1OC(OC2C(N)CC(N)C(O)C2OC2OC(CO)C(OC3OC(CN)C(O)C(O)C3N)C2O)C(N)C(O)C1O (stereo not drawn) [DC156] | 4 to 8 | >128 | >128 | 2 to 4 | 1 | 4 to 8 | 4 (≈ 6.35 µM) | >32 | >32 | 32 to 64 | >32 | 1 (≈ 1.59 µM) | 1 | 1 | 4 (≈ 6.35 µM) | 0.02 | 8.4 | 2.6 | 185 | 5.4 | MIC pH421 APH(3)-I [1]: >32 μg/ml; MIC pH422 APH(3′)-II [1]: >32 μg/ml; MIC pH423 APH(3′)-VI [1]: >32 μg/ml; MIC pH432 ANT(4′) [1]: 1 μg/ml; Target specificity bacterial vs. Cytosolic ([4]; relative target specificity, bacterial vs. human cytosolic): low
CCCC(O)C1OC(OC2C(N)CC(N)C(O)C2OC2OC(CO)C(OC3OC(CN)C(O)C(O)C3N)C2O)C(N)C(O)C1O (stereo not drawn) [DC142] | 4 (≈ 6.08 µM) | >128 | >128 | 2 (≈ 3.04 µM) | 1 | 8 (≈ 12.2 µM) | 8 (≈ 12.2 µM) | >128 | >128 | 32 to 64 | >32 | 1 (≈ 1.52 µM) | 1 | 1 | 8 (≈ 12.2 µM) | 0.04 | 20 | 34 | 107 | 12 | MIC pH421 APH(3)-I [1]: >32 μg/ml; MIC pH422 APH(3′)-II [1]: >32 μg/ml; MIC pH423 APH(3′)-VI [1]: >32 μg/ml; MIC pH432 ANT(4′) [1]: 1 μg/ml
NCC1OC(OC2C(CNC(N)=O)OC(OC3C(O)C(N)CC(N)C3OC3OC(CO)C(O)C(O)C3N)C2O)C(N)C(O)C1O (stereo not drawn) [DC141] | 4 to 8 | >128 | >128 | 4 (≈ 6.08 µM) |  | 8 (≈ 12.2 µM) | 4 (≈ 6.08 µM) | >128 | >128 |  |  |  |  |  | 4 (≈ 6.08 µM) | 0.03 | 28 | 89 | 70 | 29 | 
